From US10000488B2, “Heterocyclic compound” (TAKEDA PHARMACEUTICAL COMPANY LIMITED, priority 2014, dated 2018) come the findings set out here.

The target of assay [1] is T1, RORγt (Homo sapiens, UniProt P51449).
T1 sequence (P51449 1-497 isoform P51449-2): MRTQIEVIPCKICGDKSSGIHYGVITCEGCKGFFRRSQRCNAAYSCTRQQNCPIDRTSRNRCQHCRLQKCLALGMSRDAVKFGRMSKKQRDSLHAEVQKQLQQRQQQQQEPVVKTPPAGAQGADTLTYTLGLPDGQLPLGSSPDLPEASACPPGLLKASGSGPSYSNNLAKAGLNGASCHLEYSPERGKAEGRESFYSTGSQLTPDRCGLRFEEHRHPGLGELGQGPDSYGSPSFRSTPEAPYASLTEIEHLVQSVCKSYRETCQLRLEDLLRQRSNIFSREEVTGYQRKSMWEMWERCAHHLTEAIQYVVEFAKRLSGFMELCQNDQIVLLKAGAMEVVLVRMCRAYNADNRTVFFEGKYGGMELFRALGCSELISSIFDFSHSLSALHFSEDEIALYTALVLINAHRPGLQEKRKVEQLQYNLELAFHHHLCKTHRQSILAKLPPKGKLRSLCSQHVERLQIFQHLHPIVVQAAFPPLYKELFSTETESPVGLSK
Nature of the assay: Jurkat reporter test (human IL-17 ROR response element luciferase reporter, RORγt vector). The note with it: test compound 3 μM; Jurkat cells; read-out: luminescence level inhibitory rate (%) at test compound 3 μM. The assay is classed as cell-based. An outline of the steps: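 Jurkat cells were electroporated (1350 V, 10 ms, 3 pulses) with the reporter constructs and plated in RPMI with 10% lipid-reduced FCS, 10 mM HEPES pH 7.5 and 5 μM lovastatin. After overnight culture with compound, luciferase activity was measured by luminescence following a 10 min room-temperature incubation with Bright-Glo.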

The target of assay [2] is T1, RORγt. Put plainly: Cofactor recruitment test (Alpha Screen, biotinylated SRC-1 peptide). The format is biochemical. The note with it: read-out: signal value inhibitory rate (%) at test compound 1 μM. The procedure: Cofactor Recruitment Test
Cofactor recruitment test was performed by Alpha Screen (Histidine Detection Kit, PerkinElmer) method. First, a test compound was diluted with an assay buffer (50 mM Tris-HCl (pH 7.5), 50 mM KCl, 1 mM DTT, 0.1% BSA) and added to a 384 well plate by 5 μL. […] The mixture was stood in a dark place for 1 hr, and the signal value was measured by Envision (PerkinElmer).

Assay [3] has as its target T1, RORγt. Put plainly: RORγt binding test using fluorescent-labeled synthetic ligand (TR-FRET). The note with it: test compound 1 μM; read-out: binding inhibitory rate (%) of fluorescent-labeled synthetic ligand to RORγt at test compound 1 μM. An outline of the steps: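 Compound displacement of a fluorescent-labeled synthetic ligand from His-tagged RORγt was read by TR-FRET with a terbium anti-His antibody. Buffer was 20 mM Tris-HCl pH 7.5, 100 mM NaCl, 1 mM DTT and 0.1% BSA, with stocks of 240 nM protein, 12 μM ligand and 8 nM antibody (pre-mix, not final). Incubations were 20 min plus 20 min at room temperature, with excitation at 320 nm, emission at 520 nm and a 100 μs delay.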

In the case of `CC(C)n1c(=O)n(CC2CC2)c(=O)c2cc(NC(=O)[C@@H]3CCC[C@@H]3NC(=O)c3ccc(C#N)cc3)ccc21` [Example 264, 4-cyano-N-((1S,2R)-2-((3-(cyclopropylmethyl)-1-isopropyl-2,4-dioxo-1,2,3,4-tetrahydroquinazolin-6-yl)carbamoyl)cyclopentyl)benzamide], the inhibition at 3 µM at RORγt [1] stood at 102%. For the same compound, the inhibition at 1 µM on RORγt [2] came to 110%; at RORγt [3] it was 102%.

For the compound `COc1ccc2c(c1)C(=O)N([C@@H]1CCCN(C(=O)Nc3cc4c(=O)n(CC5CC5)c(=O)n(C(C)C)c4cc3F)C1)C2` [Example 303, (3R)—N-(3-(cyclopropylmethyl)-7-fluoro-1-isopropyl-2,4-dioxo-1,2,3,4-tetrahydroquinazolin-6-yl)-3-(6-methoxy-1-oxo-1,3-dihydro-2H-isoindol-2-yl)piperidine-1-carboxamide], at RORγt [1], the inhibition at 3 µM is 102%. The values for the inhibition at 1 µM on RORγt [2] and at RORγt [3] were 107% and 102%, respectively.

As to `CC(C)n1c(=O)n(CC2CC2)c(=O)c2cc(NC(=O)N3CCCC(NC(=O)c4ccc(C#N)c(Cl)c4)C3)ccc21` (stereo not drawn) [Example 88, 3-((3-chloro-4-cyanobenzoyl)amino)-N-(3-(cyclopropylmethyl)-1-isopropyl-2,4-dioxo-1,2,3,4-tetrahydroquinazolin-6-yl)piperidine-1-carboxamide], the inhibition at 3 µM on RORγt [1] came to 102%. Further, the inhibition at 1 µM on RORγt [2] and on RORγt [3] was 102% each time.

Turning to `COC(=O)NCc1ccc(C(=O)N[C@@H]2CCCN(C(=O)Nc3cc4c(=O)n(CC5CC5)c(=O)n(C(C)C)c4cc3F)C2)cc1` [Example 321, methyl (4-(((3R)-1-((3-(cyclopropylmethyl)-7-fluoro-1-isopropyl-2,4-dioxo-1,2,3,4-tetrahydroquinazolin-6-yl)carbamoyl)piperidin-3-yl)carbamoyl)benzyl)carbamate], on RORγt [1], the inhibition at 3 µM is 101%. For the same compound, the values for the inhibition at 1 µM on RORγt [2] and on RORγt [3] were 105% and 101%, respectively.

With `CC(C)n1c(=O)n(CC2CC2)c(=O)c2cc(NC(=O)N3CCC[C@@H](NC(=O)c4ccc(CNC(=O)OC(C)(C)C)cc4)C3)ccc21` [Example 274, tert-Butyl (4-(((3R)-1-((3-(cyclopropylmethyl)-1-isopropyl-2,4-dioxo-1,2,3,4-tetrahydroquinazolin-6-yl)carbamoyl)piperidin-3-yl)carbamoyl)benzyl) carbamate], on RORγt [1], the inhibition at 3 µM amounted to 101%. Further, the figures for the inhibition at 1 µM on RORγt [2] and on RORγt [3] were 89% and 102%, respectively.

`CC(C)n1c(=O)n(CC2CC2)c(=O)c2cc(NC(=O)N3CCC[C@@H](NC(=O)c4cc(Cl)ccc4F)C3)c(F)cc21` [Example 282, (3R)-3-((5-chloro-2-fluorobenzoyl)amino)-N-(3-(cyclopropylmethyl)-7-fluoro-1-isopropyl-2,4-dioxo-1,2,3,4-tetrahydroquinazolin-6-yl)piperidine-1-carboxamide]: the inhibition at 3 µM at RORγt [1] was 102%. In addition, the inhibition at 1 µM on RORγt [2] stood at 108%; at RORγt [3] it was 102%.
